The values that follow come from patent publication US8217035B2, “Pyrimidine derivatives used as PI-3-kinase inhibitors” (Novartis AG, priority 2006, dated 2012).

pIC50: −log10 of the molar value. Read-outs that look alike come from different tables or passages of the source.

The assay concerns the target PI3 kinase alpha (Homo sapiens, UniProt P42336). The experiment in a line: PI3K ATP depletion assay (Biological Method 1, Assay 3; KinaseGlo luminescence). It counts as biochemical. As for the experimental part:
The PI3 kinase alpha IC50 values shown in Table 1 were determined according to the ATP depletion assay as disclosed herein in Biological Method 1.
Assay 3: ATP Depletion Assay
Compounds to be tested are dissolved in DMSO and directly distributed into a black 384-well plate at 1.25 μL per well. To start the reaction, 25 μL of 10 nM PI3 kinase and 5 μg/mL 1-alpha-phosphatidylinositol (PI) are added into each well followed by 25 μL of 2 μM ATP. The reaction is performed until approx 50% of the ATP is depleted, and then stopped by the addition of 25 μL of KinaseGlo solution purchased from Promega. The stopped reaction is incubated for 5 minutes and the remaining ATP is then detected via luminescence.
(In general: In Kinase-Glo more light means more ATP remaining.)

The mark [1] stands for this setting: ATP depletion assay, read-out: PI3 Kinase Alpha, IC50.
Setting [2] is: ATP depletion assay, Biological Method 1, read-out: PI3 Kinase Alpha, IC50.

PI3 kinase alpha, sequence (P42336 whole entry): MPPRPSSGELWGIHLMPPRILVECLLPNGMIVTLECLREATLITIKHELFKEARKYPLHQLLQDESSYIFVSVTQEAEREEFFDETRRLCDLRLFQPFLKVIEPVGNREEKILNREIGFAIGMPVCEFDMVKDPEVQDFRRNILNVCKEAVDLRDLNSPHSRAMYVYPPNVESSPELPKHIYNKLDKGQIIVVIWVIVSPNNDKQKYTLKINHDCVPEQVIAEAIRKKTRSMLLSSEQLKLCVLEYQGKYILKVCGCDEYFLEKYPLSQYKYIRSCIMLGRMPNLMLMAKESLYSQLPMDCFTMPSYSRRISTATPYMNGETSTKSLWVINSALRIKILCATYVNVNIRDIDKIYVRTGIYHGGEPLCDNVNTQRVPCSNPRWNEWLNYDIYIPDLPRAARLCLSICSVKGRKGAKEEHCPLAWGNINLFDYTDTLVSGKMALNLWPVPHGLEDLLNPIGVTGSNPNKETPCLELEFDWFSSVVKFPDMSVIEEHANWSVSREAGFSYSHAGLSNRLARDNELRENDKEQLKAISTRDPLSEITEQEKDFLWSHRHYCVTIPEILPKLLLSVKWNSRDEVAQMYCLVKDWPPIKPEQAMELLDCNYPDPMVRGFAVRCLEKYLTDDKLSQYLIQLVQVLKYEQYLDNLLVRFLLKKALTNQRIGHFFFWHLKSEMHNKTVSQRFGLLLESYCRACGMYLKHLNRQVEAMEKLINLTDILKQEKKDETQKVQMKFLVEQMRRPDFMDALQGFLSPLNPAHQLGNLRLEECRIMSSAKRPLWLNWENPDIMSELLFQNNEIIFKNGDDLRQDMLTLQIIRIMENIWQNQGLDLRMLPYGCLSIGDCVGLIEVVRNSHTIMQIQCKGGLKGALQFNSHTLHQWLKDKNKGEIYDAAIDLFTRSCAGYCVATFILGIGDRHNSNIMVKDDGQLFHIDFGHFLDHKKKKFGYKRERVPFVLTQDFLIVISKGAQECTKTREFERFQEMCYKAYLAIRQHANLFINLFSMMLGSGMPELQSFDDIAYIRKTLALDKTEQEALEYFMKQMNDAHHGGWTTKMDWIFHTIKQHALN
PI3 kinase alpha, sequence (P27986 whole entry partner): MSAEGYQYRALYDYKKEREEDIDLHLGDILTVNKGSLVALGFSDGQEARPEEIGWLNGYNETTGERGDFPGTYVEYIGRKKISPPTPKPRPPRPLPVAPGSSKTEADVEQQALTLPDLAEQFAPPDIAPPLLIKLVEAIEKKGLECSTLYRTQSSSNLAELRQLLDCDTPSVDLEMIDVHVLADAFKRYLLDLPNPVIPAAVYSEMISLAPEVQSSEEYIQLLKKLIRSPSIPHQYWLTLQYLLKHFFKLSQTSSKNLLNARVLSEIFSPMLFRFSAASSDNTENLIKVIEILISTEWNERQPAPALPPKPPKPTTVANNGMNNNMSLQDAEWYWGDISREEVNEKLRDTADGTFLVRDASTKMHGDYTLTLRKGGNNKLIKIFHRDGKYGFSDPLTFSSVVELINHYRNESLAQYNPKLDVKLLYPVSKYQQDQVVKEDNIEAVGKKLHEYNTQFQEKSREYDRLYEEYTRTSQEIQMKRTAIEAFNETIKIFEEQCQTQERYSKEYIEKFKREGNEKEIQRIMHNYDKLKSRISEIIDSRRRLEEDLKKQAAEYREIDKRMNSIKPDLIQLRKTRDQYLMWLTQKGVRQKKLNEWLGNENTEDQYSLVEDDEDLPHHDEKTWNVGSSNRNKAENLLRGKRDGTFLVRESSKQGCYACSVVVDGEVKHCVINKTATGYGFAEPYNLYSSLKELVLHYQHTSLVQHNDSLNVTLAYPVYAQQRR

As to `COc1ccc(Nc2cc(-c3ccc(N)nc3)nc(N3CCOCC3)n2)cn1` [Compound 2], the pIC50 (as a rule, the negative decadic logarithm of the IC50, by convention in mol/L) under setting [1] is above 6.00.
Same read-out and setting: to `CC(C)(C)OC(=O)N1CCC[C@@H](Oc2cc(-c3cnc(N)cc3C(F)(F)F)nc(N3CCOCC3)n2)C1` [Compound 21] belongs above 6.00; to `CC(=O)N1CC[C@@H](Oc2cc(-c3cnc(N)cc3C(F)(F)F)nc(N3CCOCC3)n2)C1` [Compound 23], above 6.00.
In the case of `Nc1ncc(-c2cc(Nc3cnc4ccccc4c3)nc(N3CCOCC3)n2)cc1S(N)(=O)=O` [Compound 222], the pIC50 under setting [2] is above 5.00.
In the case of `Nc1ccc(-c2cc(C(=O)N3CCNCC3)nc(N3CCOCC3)n2)cn1` [Compound 224], the pIC50 under setting [2] is above 5.00.
`CN(C)CCOc1ccc(-c2cc(-c3ccc(N)nc3)nc(N3CCOCC3)n2)cn1` [Compound 225]: under setting [2], the pIC50 is above 6.00.
Still for that read-out and setting: to `CN1CCC(Oc2ccc(-c3cc(-c4ccc(N)nc4)nc(N4CCOCC4)n3)cn2)CC1` [Compound 226] belongs above 6.00.
The same measure, in the same setting: with `Nc1ccc(-c2cc(-c3ccc(F)nc3)nc(N3CCOCC3)n2)cn1` [Compound 228] the figure was above 6.00; with `NC(=O)c1cc(-c2cnc(N)nc2)nc(N2CCOCC2)n1` [Compound 229], above 6.00; with `Nc1ncc(-c2cc(C(=O)O)nc(N3CCOCC3)n2)cn1` [Compound 236], above 6.00.
The same measure, in the same setting: to `CS(=O)(=O)c1ccccc1Nc1cc(-c2cnc(N)cc2C(F)(F)F)nc(N2CCOCC2)n1` [Compound 240] belongs above 6.00; to `Nc1cc(C(F)(F)F)c(-c2cc(Nc3cc(C(F)(F)F)ccn3)nc(N3CCOCC3)n2)cn1` [Compound 243], above 6.00; to `CC(=O)Nc1cnc(N2CCOCC2)nc1-c1cnc(N)nc1` [Compound 256], above 6.00.
As for `CC(=O)Nc1cnc(N2CCOCC2)nc1-c1ccc(N)nc1` [Compound 257], under setting [2], the pIC50 was above 5.00.
Still for that read-out and setting: to `Nc1ncc(-c2cc(Nc3cnc4ccccc4c3)nc(N3CCOCC3)n2)c(OCCN2CCNCC2)n1` [Compound 272] belongs above 6.00; to `Nc1ccc(-c2cc(Nc3cc4ccccc4nc3OCCN3CCCC3)nc(N3CCOCC3)n2)cn1` [Compound 286], above 5.00.
On the same count and under the same terms, with `CN1CCC(Oc2ncccc2-c2cc(-c3ccc(N)nc3)nc(N3CCOCC3)n2)C1` (stereo not shown) [Compound 288] the figure was above 5.00.
Still for that read-out and setting: to `Nc1ccc(-c2cc(Sc3nc[nH]n3)nc(N3CCOCC3)n2)cn1` [Compound 292] belongs above 5.00.
`Cn1cnnc1Sc1cc(-c2ccc(N)nc2)nc(N2CCOCC2)n1` [Compound 293]: the pIC50 under setting [2] was above 5.00.
Still for that read-out and setting: with `Nc1ccc(-c2cc(Sc3ncc[nH]3)nc(N3CCOCC3)n2)cn1` [Compound 296] the figure was above 5.00; with `Nc1ccc(-c2cc(NC(=O)c3cccnc3)nc(N3CCOCC3)n2)cn1` [Compound 297], above 6.00.
The same measure, in the same setting: with `Nc1ccc(-c2cc(NC(=O)C3CCCCC3)nc(N3CCOCC3)n2)cn1` [Compound 298] the figure was above 6.00.
Regarding `Nc1ccc(-c2cc(-c3nnn[nH]3)nc(N3CCOCC3)n2)cn1` [Compound 309], the pIC50 under setting [2] was above 6.00.
On the same count and under the same terms, to `Nc1ccc(-c2cc(-c3c[nH]nn3)nc(N3CCOCC3)n2)cn1` [Compound 310] belongs above 6.00; to `Nc1cc(C(F)(F)F)c(-c2nc(N3CCOCC3)nc(N3CCOCC3)c2Cl)cn1` [Compound 312], above 6.00; to `Nc1cc(C(F)(F)F)c(-c2cc(N3CCOC4(CCCC4)C3)nc(N3CCOCC3)n2)cn1` [Compound 319], above 6.00.
For `Nc1ccc(-c2cc(N3CCOC(C(=O)O)C3)nc(N3CCOCC3)n2)cn1` (stereo not shown) [Compound 339], the pIC50 under setting [2] is above 5.00.
Still for that read-out and setting: to `Nc1ccc(-c2cc(N3CCOC(c4cccnc4)C3)nc(N3CCOCC3)n2)cn1` (stereo not shown) [Compound 340] belongs above 6.00; to `Nc1ccc(-c2cc(Nc3cccc4cn[nH]c34)nc(N3CCOCC3)n2)cn1` [Compound 346], above 6.00.
In the case of `CC(=O)Nc1ccccc1Nc1cc(-c2ccc(N)nc2)nc(N2CCOCC2)n1` [Compound 353], the pIC50 under setting [2] was above 5.00.
On the same count and under the same terms, with `CC(=O)N1CCc2cccc(Nc3cc(-c4ccc(N)nc4)nc(N4CCOCC4)n3)c21` [Compound 354] the figure was above 6.00; with `Nc1ccc(-c2cc(Nc3ccccc3-n3ccnc3)nc(N3CCOCC3)n2)cn1` [Compound 355], above 6.00.
In the case of `Cc1cc(-c2cc(Nc3cnc4ccccc4c3)nc(N3CCOCC3)n2)cnc1N` [Compound 365], the pIC50 under setting [2] was above 5.00.
`N#Cc1cc(-c2cc(Nc3cnc4ccccc4c3)nc(N3CCOCC3)n2)cnc1N` [Compound 366]: the pIC50 under setting [2] is above 5.00.
Still for that read-out and setting: with `CN(C)c1cc(-c2ccc(N)nc2)nc(N2CCOCC2)n1` [Compound 370] the figure was above 5.00.
Consider `CN(c1cc(-c2ccc(N)nc2)nc(N2CCOCC2)n1)C1CCCCC1` [Compound 372], for which the pIC50 under setting [2] was above 5.00.
As to `Nc1ccc(-c2cc(NC3CCCCC3)nc(N3CCOCC3)n2)cn1` [Compound 373], the pIC50 under setting [2] was above 5.00.
On the same count and under the same terms, to `Nc1ccc(-c2cc(NC3CCOCC3)nc(N3CCOCC3)n2)cn1` [Compound 374] belongs above 5.00; to `Nc1ccc(-c2cc(N3CCc4ccccc4C3)nc(N3CCOCC3)n2)cn1` [Compound 375], above 6.00.
Same read-out and setting: to `Nc1ccc(-c2cc(N3CCNC(=O)C3)nc(N3CCOCC3)n2)cn1` [Compound 376] belongs above 5.00.
Regarding `Nc1ccc(-c2cc(Nc3ccccc3C(F)(F)F)nc(N3CCOCC3)n2)cn1` [Compound 379], the negative logarithm of the IC50 (pIC50) under setting [2] was above 6.00.
On to `Nc1ccc(-c2cc(Nc3ccc4c(c3)NC(=O)CO4)nc(N3CCOCC3)n2)cn1` [Compound 381], for which, under setting [2], the pIC50 is above 6.00.
Same read-out and setting: to `Nc1ccc(-c2cc(N3CCCc4ccccc43)nc(N3CCOCC3)n2)cn1` [Compound 382] belongs above 6.00.
Same read-out and setting: with `Nc1ccc(-c2cc(Nc3cnccc3C(F)(F)F)nc(N3CCOCC3)n2)cn1` [Compound 385] the figure was above 6.00; with `COc1ccc(Nc2cc(-c3ccc(N)nc3)nc(N3CCOCC3)n2)cc1OC` [Compound 388], above 6.00; with `Nc1ccc(-c2cc(Nc3cccc4c3OCCO4)nc(N3CCOCC3)n2)cn1` [Compound 389], above 6.00.
Regarding `Nc1ncc(-c2cc(N3CCC(C(F)(F)F)CC3)nc(N3CCOCC3)n2)cn1` [Compound 391], under setting [2], the pIC50 was above 6.00.
Still for that read-out and setting: to `Nc1ncc(-c2cc(N[C@H]3CCCC[C@@H]3OCc3ccccc3)nc(N3CCOCC3)n2)cn1` [Compound 395] belongs above 6.00; to `Nc1ncc(-c2cc(N[C@@H]3CCCC[C@H]3OCc3ccccc3)nc(N3CCOCC3)n2)cn1` [Compound 397], above 6.00.
Consider `Nc1ncc(-c2cc(N[C@@H]3CCC[C@H]3OCc3ccccc3)nc(N3CCOCC3)n2)cn1` [Compound 398], for which, under setting [1], the pIC50 was above 6.00.
Same read-out and setting: to `CS(=O)(=O)c1cccc(-c2cc(-c3cnc(N)cc3-c3nn[nH]n3)nc(N3CCOCC3)n2)c1` [Compound 414] belongs above 6.00; to `Nc1cc(C(F)(F)F)c(-c2cc(N3CCN(c4ccccc4)C(=O)C3)nc(N3CCOCC3)n2)cn1` [Compound 416], above 6.00.
On the same count and under the same terms, with `Nc1ncc(-c2nc(N3CCOCC3)ncc2C(=O)NCC2CC2)cn1` [Compound 419] the figure was above 5.00; with `CN(C)CCNC(=O)c1cnc(N2CCOCC2)nc1-c1cnc(N)nc1` [Compound 420], above 5.00.
As to `Nc1ncc(-c2nc(N3CCOCC3)ncc2C(=O)NCC2CCCO2)cn1` (stereo not shown) [Compound 421], under setting [1], the pIC50 is above 5.00.
Same read-out and setting: to `CC(=O)NCCNC(=O)c1cnc(N2CCOCC2)nc1-c1cnc(N)nc1` [Compound 423] belongs above 5.00; to `COCCNC(=O)c1cnc(N2CCOCC2)nc1-c1cnc(N)nc1` [Compound 424], above 5.00.
With `Nc1ncc(-c2nc(N3CCOCC3)ncc2C(=O)N2CCCC2)cn1` [Compound 425], the pIC50 under setting [1] is above 5.00.
In the case of `Nc1ncc(-c2nc(N3CCOCC3)ncc2C(=O)NC2CCOCC2)cn1` [Compound 426], the pIC50 under setting [1] is above 5.00.
Consider `Nc1ncc(-c2nc(N3CCOCC3)ncc2C(=O)N2CCOCC2)cn1` [Compound 429], for which the pIC50 under setting [1] was above 5.00.
On the same count and under the same terms, with `Nc1ncc(-c2nc(N3CCOCC3)ncc2C(=O)O)cn1` [Compound 430] the figure was above 5.00; with `Nc1ccc(-c2cc(NCCc3ccccn3)nc(N3CCOCC3)n2)cn1` [Compound 433], above 5.00.
Take `Nc1ccc(-c2cc(NCCc3cccnc3)nc(N3CCOCC3)n2)cn1` [Compound 434]: under setting [1], the pIC50 was above 5.00.
Take `Nc1ccc(-c2cc(NCCc3ccncc3)nc(N3CCOCC3)n2)cn1` [Compound 435]: the pIC50 under setting [1] is above 5.00.
As to `Nc1ccc(-c2cc(NCc3ccncc3)nc(N3CCOCC3)n2)cn1` [Compound 443], the pIC50 under setting [1] was above 6.00.
Still for that read-out and setting: to `Nc1ccc(-c2cc(NCc3ccccn3)nc(N3CCOCC3)n2)cn1` [Compound 444] belongs above 6.00; to `Nc1ccc(-c2cc(NCc3cccnc3)nc(N3CCOCC3)n2)cn1` [Compound 445], above 6.00; to `Nc1cc(C(F)(F)F)c(-c2cc(OC3CCNCC3)nc(N3CCOCC3)n2)cn1` [Compound 459], above 6.00.
Turning to `Cc1c(Nc2cnc3ccccc3c2)nc(N2CCOCC2)nc1-c1cnc(N)cc1C(F)(F)F` [Compound 469], the pIC50 is above 6.00.
`Nc1ccc(-c2cc(C(F)(F)F)nc(N3CCOCC3)n2)cn1` [Compound 471]: the pIC50 under setting [1] is above 6.00.
Consider `Nc1ccc(-c2nc(N3CCOCC3)ncc2C(F)(F)F)cn1` [Compound 473], for which the pIC50 under setting [1] is above 5.00.
Same read-out and setting: with `Cc1nc(N)ncc1-c1cc(Cl)nc(N2CCOCC2)n1` [Compound 479] the figure was above 6.00.
In the case of `Nc1cc(C(F)(F)F)c(-c2cc(N3CCOCC3c3ccc(F)cc3)nc(N3CCOCC3)n2)cn1` (stereo not shown) [Compound 485], under setting [1], the pIC50 is above 6.00.
